A word on the EC50: it is the concentration that produces a half-maximal response. Usually logD stands for the decadic logarithm of the distribution of all forms, ionised or not, between an organic phase and buffer at a given pH. A low value points to lower lipophilicity.

Data set [1] is described as follows: Phototoxicity against human SK-MEL-28 cells assessed as reduction in cell viability preincubated for 12 hrs followed by 15 mins of light irradiation and measured after 24 hrs by neutral red uptake assay. The format is functional, cell-based. The note with it: SK-MEL-28, light or radiation study.
The nature of data set [2]: Dark toxicity against human SK-MEL-28 cells assessed as reduction in cell viability incubated for 24 hrs by neutral red uptake assay. The format is cell-based. Particulars: read-out: TC50.
The nature of data set [3]: Selectivity index, ratio of TC50 for human SK-MEL-28 cells to EC50 for human SK-MEL-28 cells.
The nature of data set [4]: Phototoxicity against human HeLa cells assessed as reduction in cell viability preincubated for 12 hrs followed by 15 mins of light irradiation and measured after 24 hrs by neutral red uptake assay. The note with it: light or radiation study. Format: functional, cell-based.
Data set [5] in a line: Dark toxicity against human HeLa cells assessed as reduction in cell viability incubated for 24 hrs by neutral red uptake assay. Format: cell-based. The note with it: read-out: TC50.
Data set [6] is described as follows: Selectivity index, ratio of TC50 for human HeLa cells to EC50 for human HeLa cells.
A short description of data set [7]: Drug uptake in human SK-MEL-28 cells assessed per mg protein measured upto 12 hrs by spectrofluorometric method. The format is ADME, cell-based. Particulars: sk-mel-28, 12 h.
The nature of data set [8]: Drug uptake in human HeLa cells assessed per mg protein measured upto 12 hrs by spectrofluorometric method. Format: ADME, cell-based.
Data set [9] can be described thus: Drug localization in adiposome of human SK-MEL-28 cells at 1 uM after 12 hrs by confocal microscopy analysis. Format: ADME, subcellular. The note with it: sk-mel-28, 12 h.
The nature of data set [10]: Drug localization in adiposome of human HeLa cells at 1 uM after 12 hrs by confocal microscopy analysis. The format is ADME, subcellular.
Another data set concerns SK-MEL-28. Nature of the data set: Induction of apoptosis in human SK-MEL-28 cells at EC50 concentration preincubated for 12 hrs followed by 15 mins light irradiation and measured every 15 mins for 48 hrs by real time-glo Annexin V assay. The format is functional, cell-based. Particulars: time 3615.0 min.
Data set [11] in a line: n-Octanol/PBS partition coefficient, logP of the compound at pH 7.4 at 100 uM after 5 mins. Format: physicochemical.
Data set [12] is described as follows: Absorption maximum of the compound in EtOH. Format: physicochemical.
Data set [13] is described as follows: Absorption maximum of the compound in THF. Format: physicochemical.
The nature of data set [14]: Absorption property of the compound in THF assessed as extinction coefficient. Format: physicochemical.
Data set [15] in a line: Emission maximum of the compound in THF. Format: physicochemical.
Data set [16] is described as follows: Fluorescence property of compound in EtOH assessed as quantum yield. Format: physicochemical.
A short description of data set [17]: Fluorescence property of compound in THF assessed as quantum yield. The format is physicochemical.
Data set [18] is described as follows: Fluorescence property of compound in THF assessed as life time. Format: physicochemical.
Data set [19] in a line: Induction of singlet oxygen generation in EtOH assessed as singlet oxygen quantum yield. Format: functional.
Data set [20] can be described thus: Induction of singlet oxygen generation in THF assessed as singlet oxygen quantum yield. The format is functional.

The structures appear in SMILES notation. Active and inactive are the calls of the source. No cut-off for these calls is given here.

Consider `CCSc1ccc2c(c1)C1=Nc3c4ccc(SCC)cc4c4n3[B-]3(Oc5ccc(C[C@H](NC(=O)OC(C)(C)C)C(=O)OC)cc5)n5c(c6cc(SCC)ccc6c5=N4)=NC2=[N+]13` (stereo partly specified), for which the EC50 in [1] worked out at 4.77 µM; in data set [4], 4.45 µM. Also, the CC50 at 24 h in data set [2] and in data set [5] was > 100 µM in each case. For the same compound, the entries for the “Selectivity Index” value in data set [3] and in [6] were >21 and >22, respectively. Also, the Drug uptake in data set [7] is 0.033 nmol/mg; in data set [8] it was 0.121 nmol/mg; in [9] it was “Active”; in data set [10], “Active”. For the same compound, in the data set on SK-MEL-28, the result was Active. The logD at 5 min, 100 µM in data set [11] was determined as 2.63. Moreover, the Activity in data set [12] came out at 582 nm; in data set [13] it was 581 nm; in [14], 97450 M⁻¹ cm⁻¹; in data set [15], 596 nm; in data set [16], 0.2; in data set [17], 0.19. Besides, the Activity in data set [18] amounted to 1.69 nanoseconds; in data set [19], 0.7; in [20], 0.64.

Regarding `COC(=O)[C@@H](N)Cc1ccc(O[B-]23n4c5c6ccc(I)cc6c4N=c4c6ccc(I)cc6c(n42)=NC2=[N+]3C(=N5)c3ccc(I)cc32)cc1` (stereo partly specified), the EC50 in [1] and in [4] was > 100 µM throughout. The CC50 at 24 h in [2] and in data set [5] was > 100 µM throughout. For the same compound, in [11], the logD at 5 min, 100 µM came out at 1.79. For the same compound, the Activity was 569 nm in [12]; 568 nm in data set [13]; 37460 M⁻¹ cm⁻¹ in data set [14]; 578 nm in [15]; 0.01 in [16]; 0.01 in [17]. For the same compound, the Activity was determined as 0.34 nanoseconds in data set [18], 0.29 in [19] and 0.49 in [20].

For the compound `Cl[B-]12n3c4c5ccc(I)cc5c3N=c3c5ccc(I)cc5c(n31)=NC1=[N+]2C(=N4)c2ccc(I)cc21` (stereo unspecified), the Activity in data set [12] was determined as 569 nm; in data set [13], 572 nm; in data set [14] it was 65160 M⁻¹ cm⁻¹; in data set [15] it was 581 nm; in [16] it was 0.03; in [17], 0.03. In addition, the Activity in data set [18] came out at 0.3 nanoseconds; in data set [19], 0.77; in data set [20], 0.7.

For `Fc1c(F)c(F)c2c(c1F)C1=Nc3c4c(F)c(F)c(F)c(F)c4c4n3[B-]3(OCc5ccc6c(c5)OCCOCCOCCOCCOCCO6)n5c(c6c(F)c(F)c(F)c(F)c6c5=N4)=NC2=[N+]13` (stereo unspecified), the EC50 in data set [1] was 16.3 µM; in data set [4] it was 6.4 µM. The CC50 at 24 h is 18.9 µM in data set [2] and 6.78 µM in data set [5]. The “Selectivity Index” value in [3] was 1.16; in data set [6], 1.06. The Activity was found to be 567 nm in [12]; 568 nm in data set [13]; 81000 M⁻¹ cm⁻¹ in data set [14]; 579 nm in data set [15]; 0.014 in data set [16]; 0.014 in [17]. The figures for the Activity in data set [19] and in data set [20] were 0.056 and 0.086, respectively.

With `CCSc1ccc2c(c1)C1=Nc3c4ccc(SCC)cc4c4n3[B@-]3(Oc5ccc(C[C@H](N)C(=O)OC)cc5)n5c(c6cc(SCC)ccc6c5=N4)=NC2=[N+]13`, the EC50 is 0.22 µM in [1] and 0.12 µM in data set [4]. Besides, the CC50 at 24 h is > 100 µM in [2] and 68.8 µM in data set [5]. The “Selectivity Index” value is reported as >455 in data set [3] and 573 in [6]. In addition, the Drug uptake was 0.367 nmol/mg in data set [7], 0.622 nmol/mg in data set [8], “Active” in data set [9] and “Active” in data set [10]. Further, the result with SK-MEL-28 was Active. The same compound came in with a logD at 5 min, 100 µM in [11] of 1.93. The Activity in data set [12] was 583 nm; in data set [13], 579 nm; in data set [14], 66510 M⁻¹ cm⁻¹; in data set [15], 594 nm; in [16], 0.16; in data set [17] it was 0.17. For the same compound, the Activity in [18] was 1.71 nanoseconds; in [19] it was 0.5; in data set [20], 0.49.

For `COC(=O)[C@H](Cc1ccc(O[B@@-]23n4c5c6ccc(I)cc6c4N=c4c6ccc(I)cc6c(n42)=NC2=[N+]3C(=N5)c3ccc(I)cc32)cc1)NC(=O)OC(C)(C)C`, the EC50 in [1] worked out at 11.8 µM; in data set [4], 12.2 µM. Further, the CC50 at 24 h in data set [2] and in data set [5] was > 50 µM throughout. Also, the “Selectivity Index” value in data set [3] and in data set [6] was >4 each time. The Drug uptake entry in data set [9] and in data set [10] was “Active” throughout. In data set [11], this compound registered a logD at 5 min, 100 µM of 2.22. Moreover, the Activity is 568 nm in data set [12]; 569 nm in data set [13]; 106120 M⁻¹ cm⁻¹ in data set [14]; 577 nm in data set [15]; 0.03 in [16]; 0.03 in [17]. For the same compound, the Activity in data set [18] came out at 0.3 nanoseconds; in data set [19], 0.86; in data set [20], 0.64.

Regarding `COC(=O)[C@H](Cc1ccc(O[B-]23n4c5c6c(F)c(F)c(F)c(F)c6c4N=c4c6c(F)c(F)c(F)c(F)c6c(n42)=NC2=[N+]3C(=N5)c3c(F)c(F)c(F)c(F)c32)cc1)NC(=O)OC(C)(C)C` (stereo partly specified), the concentration giving a half-maximal response (EC50) in data set [1] was 66.2 µM; in data set [4], 64 µM. Moreover, the CC50 at 24 h in [2] is > 100 µM; in data set [5] it was 65.7 µM. Also, the “Selectivity Index” value is given as >1.51 in [3] and 1.03 in [6]. In addition, the Activity was found to be 567 nm in data set [12]; 568 nm in data set [13]; 27790 M⁻¹ cm⁻¹ in data set [14]; 578 nm in data set [15]; 0.09 in data set [16]; 0.09 in data set [17]. The Activity in [19] and in data set [20] was 0.19 throughout.

On to `Ic1ccc2c(c1)C1=[N+]3C2=Nc2c4ccc(I)cc4c4n2[B@-]3(OCc2ccc3c(c2)OCCOCCOCCOCCOCCO3)n2c(c3cc(I)ccc3c2=N4)=N1`, for which the EC50 in data set [1] is 0.038 µM; in [4] it was 0.066 µM. The CC50 at 24 h turned out to be 71.8 µM in [2] and 23.5 µM in [5]. The “Selectivity Index” value in data set [3] is 1891; in [6], 356. Also, the Drug uptake in data set [7] was 0.005 nmol/mg; in [8], 0.33 nmol/mg; in [9] it was “Active”; in data set [10] it was “Active”. In the data set with SK-MEL-28, the outcome was Active. Besides, the Activity in data set [12] was found to be 569 nm; in [13] it was 568 nm; in data set [14], 80750 M⁻¹ cm⁻¹; in data set [15] it was 578 nm; in [16] it was 0.022; in data set [17] it was 0.022. Besides, the Activity in [18] turned out to be 0.35 nanoseconds; in data set [19], 0.59; in data set [20], 0.57.

The values are drawn from ChEMBL document CHEMBL5053548, “Subphthalocyanines as Efficient Photosensitizers with Nanomolar Photodynamic Activity against Cancer Cells” (J Med Chem, 2021).
